According to patent US20230201151A1, “FORMULATIONS AND METHODS FOR TREATING ACUTE RESPIRATORY DISTRESS SYNDROME, ASTHMA, OR ALLERGIC RHINITIS” (UNIVERSITY OF FLORIDA RESEARCH FOUNDATION, INC., priority 2020, published 2023):

System: ENaC
Experiment: Benzamil-sensitive Isc (ENaC activity) in differentiated HBECs, Ussing chamber
Format: cell-based, human
Method: High individual variation in benzamil-sensitive current and TEER in HBECs. In an Ussing chamber-based experimental design, basal short-circuit current (Isc) and transepithelial electrical resistance (TEER) were recorded in differentiated HBECs from two lung donors that were grown on snapwells at an air-liquid interface for 28 to 35 days. Benzamil, a potent ENaC blocker was used to determine ENaC activity by calculating benzamil-sensitive Isc from changes in Isc that occur 15 minutes after adding 6 μM benzamil to the apical side of cells. […] Therefore, normalized data were used for all subsequent experiments for statistical analyses relating to FIGS. 13-18.
Basal treatment with cytokines [IL-13 (Abcam), IL-4 (PeproTech), TNF-α, IFN-γ and TGF-β1 (R&D Systems)] diluted in ALI medium started as early as day 14 post differentiation. Individual cytokines or cytokine cocktails were added to the culture medium at the desired concentrations and cells were incubated with the cytokines for a maximum of 16 days. ALI medium containing cytokines was changed every two days. Age-matched HBECs were assigned to the following treatment groups:
II Time-dependent studies: These studies were done using a concentration that ensured maximum inhibition of benzamil-sensitive Isc and TEER. HBECs were treated with respective cytokines for 2, 4, 6, 8, 10, 12, 14, or 16 days. IFN-γ, TNF-α or TGF-β1 at 1 ng/mL, IL-13 at 20 ng/mL and IL-4 at 2 ng/mL were used.
III Cytokine cocktails: were prepared using IFN-γ and TNF-α at 0.05, 0.5, 2.5, 5 and 10 ng/mL while TNF-α, IFN-γ and TGF-β1 at 1 ng/mL for each of the cytokines was added to the culture media for 7 days.
Ussing chamber experiments: Snapwells with differentiated HBECs that were incubated with cytokines or age-matched HBECs without cytokine exposure were mounted in Ussing chambers (Physiologic Instruments), and cells were either bathed in isotonic ringer solution containing 113.8 mM Na^+, 93.6 mM Cl^−, 25 mM HCO3^−, 5.2 mM K^+, 2.4 mM HPO4^−, 0.4 mM H2PO4^−, 1.2 mM Mg^2+, 1.2 mM Ca^2+, and 75 mM mannitol, or in AA-EC01. Glucose (5 mM) was added to the basal side, and chambers were bubbled with 95% O2 and 5% CO2 at 37° C. AA-EC01 contained 8 mM lysine, 8 mM tryptophan, 8 mM arginine, 8 mM glutamine, and 1.2 mM tyrosine, and AANC contained 8 mM leucine, 8 mM cysteine, 8 mM isoleucine, 8 mM aspartic acid and 8 mM glutamate (Ajinomoto), both diluted in an electrolyte solution containing 113.8 mM Na^t, 93.6 mM Cl^−, 25 mM HCO3^−, 5.2 mM K^+, 2.4 mM HPO4^−, 0.4 mM H2PO4^−, 1.2 mM Mg′, 1.2 mM Ca^2+ and 40 mM mannitol at pH 7.4 and 300 mOsm. Cell cultures were allowed to equilibrate in the Ussing chambers for 30 minutes while continuously voltage clamped to 0 mV. Basal short circuit current (Isc) and transepithelial electrical resistance (TEER) were recorded at 30-second intervals, and benzamil-sensitive Isc was calculated from the difference of basal Isc recorded after 30 minutes and Isc measured at 15 minutes after adding 6 μM of benzamil (ThermoFisher) to the apical side.
Statistical analysis: Results are presented as mean±standard error of mean (SEM). Analyses were performed with OriginPro 2018 software package. For each treatment group, values were tested for normal distribution using the Shapiro-Wilk normality test. […] The values were normalized to controls within the group, and data were pooled for comparison between groups. Kruskal-Wallis test was used for comparing the overall effect of ringer, AA-EC01 and AANC on benzamil-sensitive Isc and TEER, and Mann Whitney U test was used for pairwise comparison within the group and for comparison between basal values for each cytokine at zero ng/mL or day zero with each concentration and time period studied. P<0.05 was considered significant, and NS indicates not significant.

Substance: IL-13: Th2 cytokine (Abcam) added to HBEC culture medium
- benzamil-sensitive Isc, normalized to control (IL-13 0.1 ng/mL, 14 days): 50.9±9.6%
- day by which benzamil-sensitive Isc was completely suppressed (IL-13 20 ng/mL, 16-day incubation): ≤ 8 days
- benzamil-sensitive Isc, of baseline value (IL-13 20 ng/mL, day 2): 25.0±5%
- concentration at which benzamil-sensitive Isc was completely abolished (IL-13, 14 days): 8 ng/mL
